In patent publication US20170066759A1, “AROMATIC 5-MEMBERED HETEROCYCLIC DERIVATIVE HAVING TRPV4-INHIBITING ACTIVITY” (Shionogi & Co., Ltd., priority 2012, published 2017):

Target: T1, human TRPV4 (hTRPV4/CHO cells) (Homo sapiens, UniProt Q9HBA0)
T1 construct: expressed in transfected cells; host or cells: CHO-K1
Test: Test Example 1: TRPV4 inhibitory activity (IC50 value), 4α-PDD stimulation, Fluo4 calcium fluorescence (FLIPR TETRA)
Type: cell-based
Conditions: Test Example 1, 4α-PDD stimulation, read-out: Test 1 IC50

T1 sequence (Q9HBA0 whole entry): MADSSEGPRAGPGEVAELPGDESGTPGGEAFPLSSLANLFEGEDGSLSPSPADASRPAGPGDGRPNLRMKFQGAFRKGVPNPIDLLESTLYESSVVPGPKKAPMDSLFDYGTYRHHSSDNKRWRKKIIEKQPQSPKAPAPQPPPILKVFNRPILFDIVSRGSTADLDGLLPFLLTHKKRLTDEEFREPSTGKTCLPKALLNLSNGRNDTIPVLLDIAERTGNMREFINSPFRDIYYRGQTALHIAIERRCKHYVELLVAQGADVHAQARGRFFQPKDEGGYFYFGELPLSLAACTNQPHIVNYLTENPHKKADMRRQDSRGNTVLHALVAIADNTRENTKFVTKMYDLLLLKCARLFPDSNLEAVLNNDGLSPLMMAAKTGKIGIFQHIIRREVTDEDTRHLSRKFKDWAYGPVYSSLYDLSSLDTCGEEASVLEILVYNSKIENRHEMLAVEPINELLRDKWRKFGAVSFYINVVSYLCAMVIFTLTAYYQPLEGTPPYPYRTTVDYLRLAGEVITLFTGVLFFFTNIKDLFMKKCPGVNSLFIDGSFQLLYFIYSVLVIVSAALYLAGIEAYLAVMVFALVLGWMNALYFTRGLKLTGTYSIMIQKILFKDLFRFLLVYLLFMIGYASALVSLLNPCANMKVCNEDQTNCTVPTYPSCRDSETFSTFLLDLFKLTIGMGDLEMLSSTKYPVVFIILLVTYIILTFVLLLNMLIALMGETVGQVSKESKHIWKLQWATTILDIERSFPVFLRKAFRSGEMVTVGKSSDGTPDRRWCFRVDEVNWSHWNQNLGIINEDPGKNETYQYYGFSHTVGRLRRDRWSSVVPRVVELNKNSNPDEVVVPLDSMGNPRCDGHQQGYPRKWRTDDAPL

Row | Structure (SMILES) | IC50 [nM]
1 | O=C(Cc1ccc(S(=O)(=O)C(F)(F)F)cc1)Nc1nc(-c2sc(CO)nc2CN2CCCC2=O)cs1 [Compound I-463] | 100 to 1000
2 | Cc1nc(C)c(-c2csc(NC(=O)CN3CCC[C@@H](c4ccccc4)C3)n2)s1 [Compound I-183] | 100 to 1000
3 | Cc1nc(C)c(-c2csc(CCOc3ccc(Br)cc3)n2)s1 [II-4] | 1000 to 8000
4 | Cc1nc(C)c(-c2csc(NC(=O)Cn3cc(Br)cn3)n2)s1 [Compound I-132] | < 100
5 | COc1cc(CC(=O)Nc2nc(-c3sc(C)nc3C)cs2)cc(C(=O)NC(C)(C)C(F)(F)F)c1 [Compound I-528] | < 100
6 | Cc1nc(C)c(-c2csc(NC(=O)[C@H]3C[C@@H](N(C)Cc4ccc(C(F)(F)F)cc4)C3)n2)s1 [Compound I-367] | < 100
7 | Cc1nc(CO)sc1-c1csc(NC(=O)C2CC(c3ccccc3)=NO2)n1 (centres unmarked) [Compound I-207] | 100 to 1000
8 | Cc1nc(C(C)O)sc1-c1csc(NC(=O)[C@H]2C[C@@H](F)C2)n1 (mixture of isomers) [Compound I-299] | 1000 to 8000
9 | Cc1nc(C(=O)NCCN(C)C)c(-c2csc(NC(=O)Cc3c(F)cccc3F)n2)s1 [Compound I-188] | 1000 to 8000
10 | Cc1nc(C(C)O)sc1-c1csc(NC(=O)C2CCN(c3ccccc3)C2)n1 (centres unmarked) [Compound I-295] | 100 to 1000
11 | CCOC(=O)c1nc(C)sc1-c1csc(NC(=O)Cc2c(F)cccc2F)n1 [Compound I-539] | < 100
12 | Cc1nc(C)c(-c2csc(NC(=O)[C@H]3C[C@H](c4ccccc4)CN3C(=O)OC(C)(C)C)n2)s1 [Compound I-245] | < 100
13 | Cc1nc([C@H](C)O)sc1-c1csc(NC(=O)Cc2cc(Br)cc(C(=O)N[C@H](c3ccccc3)C(F)(F)F)c2)n1 [Compound I-524] | < 100
14 | O=C(Nc1nc(-c2sc(CO)nc2CO)cs1)C1CC(OCC2CC2)C1 (centres unmarked) [Compound I-339] | 1000 to 8000
15 | Cc1nc(CS(C)(=O)=O)c(-c2csc(NC(=O)Cc3ccc(S(=O)(=O)C(F)(F)F)cc3)n2)s1 [Compound I-485] | 100 to 1000
16 | Cc1nc(C)c(-c2csc(NC(=O)[C@@H]3C[C@@H](c4ccccc4)CN3C(=O)C(F)(F)F)n2)s1 [Compound I-218] | < 100
17 | Cc1nc(CO)sc1-c1csc(NC(=O)CC2CCN(S(=O)(=O)CCC(F)(F)F)CC2)n1 [Compound I-452] | 1000 to 8000

Row | Structure (SMILES) | IC50 [nM]
18 | Cc1nc(CO)sc1-c1csc(NC(=O)CC2CCN(c3ncc(C(F)(F)F)cn3)CC2)n1 [Compound I-449] | < 100
19 | Cc1nc(C)c(-c2csc(NC(=O)Cn3cc(-c4ccc(S(C)(=O)=O)cc4)cn3)n2)s1 [Compound I-151] | 100 to 1000
20 | Cc1nc(C)c(-c2csc(NC(=O)C3Cc4ccccc4O3)n2)s1 (centres unmarked) [Compound I-180] | < 100
21 | Cc1nc(C)c(-c2nc(NC(=O)Cc3c(F)cccc3F)sc2C2=CCCCC2)s1 [Compound I-537] | 1000 to 8000
22 | Cc1nc(C)c(-c2csc(NC(=O)Cn3cc(Cn4cccc4)nn3)n2)s1 [Compound I-428] | 100 to 1000
23 | Cc1nc(C)c(-c2csc(NC(=O)Cc3cc(OCCN(C)C)cc(C(=O)N[C@H](c4ccccc4)C(F)(F)F)c3)n2)s1 [Compound I-514] | 1000 to 8000
24 | Cc1nc(CO)sc1-c1csc(NC(=O)C2CN(Cc3ccc(C(F)(F)F)cc3)C2)n1 [Compound I-208] | < 100
25 | Cc1nc(C)c(-c2csc(N(Cc3ccc(C(F)(F)F)cc3)C(=O)C3CN(O)C3)n2)s1 [Compound I-374] | 1000 to 8000
26 | Cc1nc(C)c(-c2csc(NC(=O)Cc3cccc(Br)c3)n2)s1 [Compound I-408] | < 100
27 | Cc1nc(CO)sc1-c1csc(NC(=O)C2CN(c3cccnc3C(F)(F)F)C2)n1 [Compound I-310] | < 100
28 | NC(=O)c1nc(CO)c(-c2csc(NC(=O)C3CN(Cc4ccc(C(F)(F)F)cc4)C3)n2)s1 [Compound I-325] | 100 to 1000
29 | Cc1nc(CO)sc1-c1csc(Nc2ccccn2)n1 [II-32] | < 100
30 | Cc1nc(C)c(-c2csc(NC(=O)C3Cc4ccccc4C3)n2)s1 [Compound I-88] | 1000 to 8000
31 | Cc1nc(CO)sc1-c1csc(NC(=O)[C@H]2C[C@H](OCC(F)(F)F)C2)n1 [Compound I-357] | < 100
32 | Cc1nc(C)c(-c2csc(NC(=O)[C@H]3C[C@H](c4ccccc4)CN3)n2)s1 [Compound I-192] | 1000 to 8000
33 | Cc1nc(CO)sc1-c1csc(NC(=O)C2CN(C(=O)OC(C)(C)C(F)(F)F)C2)n1 [Compound I-329] | < 100

More lines, now with the values ahead:

Row | IC50 [nM] | Structure (SMILES)
34 | < 100 | O=C(Cc1ccc(S(=O)(=O)C(F)(F)F)cc1)Nc1nc(-c2sc(CO)nc2CCCO)cs1 [Compound I-360]
35 | 100 to 1000 | CCOC(=O)c1nc(C)c(-c2csc(NC(=O)Cc3c(F)cccc3F)n2)s1 [Compound I-94]
36 | 1000 to 8000 | Cc1nc(C(=O)NCCO)c(-c2csc(NC(=O)Cc3c(F)cccc3F)n2)s1 [Compound I-182]
37 | < 100 | Cc1nc(C)c(-c2csc(NC(=O)Cn3cc(-c4ccccc4)cn3)n2)s1 [Compound I-134]
38 | 100 to 1000 | Cc1ncsc1-c1csc(NC(=O)Cc2c(F)cccc2F)n1 [Compound I-540]
39 | 100 to 1000 | COC(=O)NCc1nc(C)c(-c2csc(NC(=O)Cc3ccc(S(=O)(=O)C(F)(F)F)cc3)n2)s1 [Compound I-400]
40 | < 100 | Cc1nc(CO)sc1-c1csc(NC(=O)Cc2ccc(S(=O)(=O)C(F)(F)F)cc2)n1 [Compound I-142]
41 | < 100 | Cc1nc(C)c(-c2csc(NC(=O)Cc3cccc(NS(=O)(=O)c4ccccc4)c3)n2)s1 [Compound I-418]
42 | 100 to 1000 | C=C(C)c1nc(C)sc1-c1csc(NC(=O)Cc2c(F)cccc2F)n1 [Compound I-545]
43 | < 100 | Cc1nc(COC(N)=O)c(-c2csc(NC(=O)Cc3ccc(S(=O)(=O)C(F)(F)F)cc3)n2)s1 [Compound I-468]
44 | < 100 | Cc1nc(CO)sc1-c1csc(NC(=O)C2Oc3ccc(Cl)cc3O2)n1 (racemic) [Compound I-238]
45 | < 100 | Cc1nc(C)c(-c2csc(NC(=O)Cc3cccc(NC(=O)C(F)(F)F)c3)n2)s1 [Compound I-417]
46 | 100 to 1000 | NS(=O)(=O)NCc1nc(CO)sc1-c1csc(NC(=O)Cc2ccc(S(=O)(=O)C(F)(F)F)cc2)n1 [Compound I-384]
47 | < 100 | O=C(Cc1ccc(S(=O)(=O)C(F)(F)F)cc1)Nc1nc(-c2sc(CO)nc2CCCN2CCOCC2)cs1 [Compound I-377]
48 | 100 to 1000 | Cc1nc(C)c(-c2csc(NC(=O)Cn3cc(-c4cccnc4)cn3)n2)s1 [Compound I-148]
49 | 100 to 1000 | Cc1nc(CO)sc1-c1csc(NC(=O)[C@H]2C[C@@H](N(C)CC(F)(F)F)C2)n1 [Compound I-304]
50 | 100 to 1000 | Cc1nc(C)c(-c2csc(NC(=O)Cc3ccc(S(=O)(=O)C(F)(F)F)cc3)n2)s1 [Compound I-117]
51 | < 100 | Cc1nc(C(C)O)sc1-c1csc(NC(=O)C2CN(c3ccc(C(F)(F)F)cc3)C2)n1 (racemic) [Compound I-467]
52 | < 100 | O=C(Nc1nc(-c2sc(CO)nc2CO)cs1)C1CCC(C(F)(F)F)CC1 (centres unmarked) [Compound I-254]
53 | 1000 to 8000 | Cc1nc(C)c(-c2csc(NC(=O)C3CN(C(=O)c4ccccc4)C3)n2)s1 [Compound I-256]
54 | < 100 | Cc1nc(C)c(-c2csc(NC(=O)Cc3ccc(S(=O)(=O)N(C)c4ccc(Cl)cc4)cc3)n2)s1 [Compound I-160]
55 | 100 to 1000 | CCNCc1nc(CO)sc1-c1csc(NC(=O)Cc2ccc(S(=O)(=O)C(F)(F)F)cc2)n1 [Compound I-237]

Row | IC50 [nM] | Structure (SMILES)
56 | 1000 to 8000 | Cc1nc(C)c(-c2csc(NC(=O)c3cccc(-c4ccccc4)n3)n2)s1 [Compound I-296]
57 | 100 to 1000 | Cc1nc(CO)sc1-c1csc(NC(=O)C2CC2(F)F)n1 (centres unmarked) [Compound I-173]
58 | < 100 | Cc1nc(C)c(-c2csc(NCCc3ccc(Cl)cc3)n2)s1 [II-36]
59 | 100 to 1000 | Cc1nc(OCCO)sc1-c1csc(NC(=O)Cc2ccc(S(=O)(=O)C(F)(F)F)cc2)n1 [Compound I-461]
60 | 100 to 1000 | Cc1nc(C)c(-c2csc(NC(=O)CC3CN(c4ncc(C(F)(F)F)cn4)C3)n2)s1 [Compound I-401]
61 | 1000 to 8000 | Cc1nc(CO)sc1-c1csc(NC(=O)C2CC(N3CCC(F)(F)C3)C2)n1 (centres unmarked) [Compound I-362]
62 | 1000 to 8000 | Cc1nc(C)c(-c2csc(NC(=O)[C@@H]3C[C@@H](c4ccccc4)CN3C)n2)s1 [Compound I-217]
63 | 100 to 1000 | Cc1nc(CO)sc1-c1csc(NC(=O)[C@H]2C[C@@H](NCc3ccc(C(F)(F)F)cc3)C2)n1 [Compound I-319]
64 | < 100 | COC(=O)N1C[C@H](c2ccccc2)C[C@H]1C(=O)Nc1nc(-c2sc(CO)nc2C)cs1 [Compound I-323]
65 | 100 to 1000 | O=C(Nc1nc(-c2sc(CO)nc2CO)cs1)C1CC(c2ccccc2)C1 (centres unmarked) [Compound I-546]
66 | 1000 to 8000 | CC(=O)Nc1cccc(CC(=O)Nc2nc(-c3sc(C)nc3C)cs2)c1 [Compound I-414]
67 | < 100 | COC(=O)N(C)Cc1nc(CO)sc1-c1csc(NC(=O)Cc2ccc(S(=O)(=O)C(F)(F)F)cc2)n1 [Compound I-434]
68 | < 100 | Cc1nc(CO)sc1-c1csc(NC(=O)C2CN(c3ccc(C(F)(F)F)nc3)C2)n1 [Compound I-309]
69 | 100 to 1000 | Cc1nc(C)c(-c2csc(NCC(O)c3ccccc3)n2)s1 (racemic) [II-39]
70 | 100 to 1000 | Cc1nc(C)c(-c2csc(NC(=O)C3CN(c4ccc(-c5ccccc5)nn4)C3)n2)s1 [Compound I-285]
71 | 100 to 1000 | Cc1nc(C)c(-c2csc(NC(=O)Cn3cc(-c4ccc(N(C)C)cc4)nn3)n2)s1 [Compound I-427]
72 | < 100 | Cc1nc(C)c(-c2csc(NC(=O)Cc3cccc(C(=O)Nc4ccc(C(F)(F)F)cc4)n3)n2)s1 [Compound I-508]
73 | 100 to 1000 | Cc1nc(C)c(-c2csc(NC(=O)[C@H]3CC[C@@H](c4ccccc4)N3C(=O)OC(C)(C)C)n2)s1 [Compound I-211]
74 | < 100 | Cc1nc(C)c(-c2csc(NC(=O)[C@@H]3C[C@@H](c4ccccc4)CN3CC(F)(F)F)n2)s1 [Compound I-292]
75 | 1000 to 8000 | Cc1nc(C)c(-c2csc(NC(=O)Cn3cc(C#N)cn3)n2)s1 [Compound I-123]
76 | < 100 | NC(=O)NCc1nc(CO)sc1-c1csc(NC(=O)C2CN(c3ccc(C(F)(F)F)cc3)C2)n1 [Compound I-345]
77 | 100 to 1000 | Cc1nc(C(C)(C)O)sc1-c1csc(NC(=O)Cc2c(F)cccc2F)n1 [Compound I-97]
